We go through 87 compounds from a melting point compilation (Tetko et al.; mined from patent text by program, amines drawn as free bases though some values may be those of a salt).

A value given as a limit tells only on which side of the number the result lay.

As to `CC(C)CN1c2ccccc2C(C)(C)C12C=Nc1cc(-c3ccc(N4CCCC4)cc3)c3ccccc3c1O2` (configuration not stated), the melting point is 242 to 245 °C. Turning to `Cc1cc(CC(=O)O)[nH]c1C(=O)c1ccccc1`, the melting point was in the range of 167 to 168 °C. To `O=c1[nH]c2cc(Cl)cc(Cl)c2c(=O)n1Cc1cccc2ccccc12` belongs 274 to 276 °C; to `CCC(N)=C(C(C)=O)C(=O)N(CCN(C)C)c1ccccc1`, 103 to 105 °C; to `CC(Oc1ccc(C(C)(C)C)cc1C(C)(C)C)C(=O)O` (configuration not stated), 106 to 111 °C. For the compound `COc1cc(Nc2c(C#N)cnc3cc4cc(OC)c(OCCN5CCC(O)CC5)cc4cc23)c(Cl)cc1C`, the melting point lay in the range of 205 to 235 °C. To `O=C(Nc1ccc(-n2nc(C(F)(F)F)cc2C(F)(F)F)cc1)C1CCCO1` (configuration not stated) belongs 113 to 116 °C; to `Cc1ccc(S(=O)(=O)NC(=O)Nc2ccc(Br)c(C)c2)cc1`, 178 to 180 °C; to `O=C(CC(O)(c1cc(Cl)cc(Cl)c1)C(F)(F)F)c1ccc(Br)c2ccccc12` (configuration not stated), 74.5 to 75 °C. Next, `CCN(CC)C(=O)Cc1c(C)n(Cc2ccccc2)c2ccc(OCc3nc4ccccc4s3)cc12`: 111 to 112 °C; `CC(C)(C)c1cc(CCN=C(O)c2cc(C(O)=NCCc3cc(C(C)(C)C)c(O)c(C(C)(C)C)c3)c(C(=O)O)cc2C(=O)O)cc(C(C)(C)C)c1O`: 231 to 233 °C; `CC(C)(C(=O)c1ccc(N2CCCCC2)cc1)N1CCOCC1`: 159 to 162 °C. To `CC(=O)Oc1ccc(C=Cc2cc(OC(C)=O)cc(OC(C)=O)c2)cc1` belongs 112 to 113 °C. The compound `O=[N+]([O-])c1ccc(N2CCN(c3cc(N4CCCC4)nc(N4CCCC4)n3)CC2)cc1` displayed a melting point of 200 to 201 °C. In the case of `CCCS(=O)(=O)Oc1ccc(CO)c(Oc2ncc(C(F)(F)F)cc2Cl)c1`, the melting point lay in the range of 68.5 to 69.5 °C. As to `O=C(O)CCS(=O)(=O)NCCOCCc1ccccc1`, the melting point was in the range of 80 to 82 °C. To `O=c1[nH]cnc(N=Nc2ccccc2)c1O` belongs 244 to 245 °C; to `CC(=O)N1C(=O)N(c2ccc(C#N)c(C(F)(F)F)c2)C(=O)C1(C)C`, 129 to 130 °C; to `N#Cc1cc(C(=O)NN2CCOCC2)ccc1O`, 238 to 240 °C. To `COc1ccc(C(=O)NCCc2ccc(-c3ccc(O)cc3)cc2)cc1OC` belongs 170 °C; to `COc1c(C(=O)NN=Cc2ccc(Cl)cc2)[nH]c2ccccc12`, 249 to 251 °C; to `COC(=O)c1cccc2c1ccn2S(C)(=O)=O`, 102 to 104 °C. Consider `COc1ccc(-c2cccn2-c2ccc(S(N)(=O)=O)cc2)cc1`, for which the melting point fell in the range of 183 to 184 °C. In turn, `CC(=O)N1N=C2C(=Cc3cccc(C(F)(F)F)c3)CS(=O)(=O)CC2C1c1cccc(C(F)(F)F)c1` (configuration not stated) showed a melting point of 200 to 202 °C.

With `CC(CO)Nc1ccc(-c2cccc(C(F)(F)F)c2)nn1` (configuration not stated), the melting point is 143 to 144 °C. `Cc1cccc(-c2[nH]c(C(C)C)nc2-c2cccc(-c3ccc4c(c3)CCCS4=O)c2)n1` (configuration not stated) showed a melting point of 136 to 139 °C. To `COc1ccc2c(c1)Sc1c(cc(OC)c(O)c1Br)N2` belongs 185 °C; to `Nc1ncnc2c1ncn2CC(/C=C/P(=O)(O)O)CO` (configuration not stated), more than 300 °C; to `O=C(N[C@@H](Cc1ccccc1)[C@H](O)CCl)OCc1ccccc1`, 151 to 153 °C. To `Cc1cc(C)c(NC(=O)CN2CCN(CCSc3nc4ccccc4o3)CC2)c(C)n1` belongs 159 to 160 °C; to `CCc1ccc(-c2ccccc2)cc1O`, 62 to 65 °C; to `COC(=O)c1ccccc1S(=O)(=O)NCC(=O)N[C@@H](Cc1ccccc1)C(=O)O`, 140 to 143 °C. `O=C1Nc2ncccc2N2CCNCC12` (configuration not stated) had a melting point of 315 to 319 °C. As to `Cc1cc2c(-c3cccc(C(F)(F)F)c3)nc(COCC(F)(F)F)nc2s1`, the melting point is 40 to 41 °C. `N#Cc1[nH]c2ccc(C(O)(C(F)(F)F)C(F)(F)F)cc2c1-c1ccccc1` displayed a melting point of 247 to 249 °C. To `O=C(Nc1c[nH]nc1C(=O)NCC(F)(F)F)c1ccccc1` belongs 203 to 206 °C; to `Fc1ccc(Nc2ncnc3cnc(N4CCC(N5CCNCC5)CC4)nc23)cc1Cl`, 178 to 180 °C. Next, `CC(=O)OCCn1ccc(=O)c(O)c1Cc1ccccc1`: 140 to 141 °C; `C=C(CCC(=O)O)CC(N)C(=O)O` (configuration not stated): 68 °C; `COc1ccccc1OCC(O)CN1CCC(N2CCCNC2=O)CC1` (configuration not stated): 130 to 133 °C.

Compound `C=CCOc1ccc2cn[nH]c2c1` returned a melting point of 110 to 112 °C. In turn, `O=C1OC(=O)C(F)=C1F` came in with a melting point of 170 to 173 °C. To `Cn1cncc1C(O)(c1ccc(Cl)cc1)c1ccc2c(c1)c(-c1cccc(Cl)c1)cc1cnnn12` (configuration not stated) belongs 222 °C; to `CC(C)(C)C(NC(=O)c1ccc(Cl)cc1)NC(=NC#N)NCc1ccccc1Cl` (configuration not stated), 180 to 182 °C. To `Cn1ncc(C(=O)Nc2cc(Cl)ccc2Cl)c1N` belongs 190 to 191 °C. Turning to `COc1cc(S(C)=O)c(C)cc1OCC(=O)NCC(O)COc1ccccc1C` (configuration not stated), the melting point was in the range of 106 to 108 °C. Next, `CC(C)COC(=O)C(C#N)=CNCc1ccco1`: 85 to 87 °C.

On to `CCOC(=O)Nc1ccc(OC)c(OC)c1C1OCCO1`, for which the melting point was in the range of 95 to 96 °C.

With `CCNC(=O)c1cc2c(c(Cl)c1O)CCN(C(=O)OC(C)(C)C)C[C@@H]2c1ccc(O)cc1`, the melting point lay within 120 to 125 °C. In the case of `COc1ccc(C(=O)Nc2cccc(C(C)(C)CNC(C)=O)c2)cc1OC`, the melting point lay in the range of 132 to 134 °C. Next, `COc1ccc(C2CCN(C)CC2)cc1Nc1ncc2ccc(-c3ccccc3OC)n2n1`: 64 to 69 °C. Turning to `O=C(N[C@H](Cc1ccc(CC(F)(F)C(F)(F)F)cc1)[C@@H](O)c1cccc(Cl)c1)c1cccc2c(Cl)cccc12` (racemic), the melting point was in the range of 216 to 217 °C. Next, `COC(=O)C=CC(=S)c1ccc(-c2ccccc2)cc1`: 85 to 86.5 °C. To `CN1C(=O)C(C#N)(c2ccc(OCC(O)CNC(C)(C)C)cc2)Sc2ccccc21` (configuration not stated) belongs 160 °C; to `CC(=O)Oc1ccc2c(c1)C1C(OC(=O)C(C)(C)C)CC3(C)C(OC(=O)C(C)(C)C)CCC3C1CC2` (configuration not stated), 143 to 146 °C. To `Cc1nc2cccnc2n(-c2ccc(F)cc2)c1=O` belongs 270 to 271 °C.

Compound `CN(C)S(=O)(=O)c1ccc2c(c1)C(=O)c1ccccc1CC2` yielded a melting point of 122 to 124 °C.

As to `O=C(O)c1cn2c3c(cc(Cl)cc3c1=O)C(O)CC2` (configuration not stated), the melting point is more than 250 °C.

Compound `O=C1N(Cc2cc(-c3ccc(Cl)cc3)oc2C(F)(F)F)c2ccccc2C12COc1cc3c(cc12)OCO3` (configuration not stated) returned a melting point of 114 to 116 °C. To `O=C(O)C(F)(F)C(F)(F)C(F)(F)C(F)(F)C(F)(F)C(F)(F)C(=O)O` belongs 142 to 144 °C; to `O=C(O)C1Cc2c(ncn2CCc2ccccc2)CN1C(=O)Cc1ccccc1` (configuration not stated), 215 to 220 °C. Next, `COC1=C(OC)C(=O)C2=C(CC(CCCCCCCCN3CCN(c4ccccn4)CC3)C2)C1=O`: 80 to 84 °C. To `CN(CCC1CCN(c2noc3cc(F)ccc23)CC1)C(=O)c1noc2ccccc12` belongs 94 to 97 °C; to `CCOC(=O)c1cn(C)c2nc3c(F)c(N4CCNC(c5ccc(OC)cc5)C4)c(F)cc3cc2c1=O` (racemic), 209 °C; to `CCOc1ccc(-c2csc(-c3cccc(C(=O)O)c3)n2)cc1`, 231 to 232 °C. With `COc1cccc(C23CCN(C(=O)c4ccccc4)CC2CCC(=O)C3)c1` (configuration not stated), the melting point was found to be 78 °C. To `CC(C)n1nc(-c2sc(NC(C)(C)C)nc2-c2ccccc2)ccc1=O` belongs 189 to 190 °C. Next, `O=C1c2ccccc2C(=O)N1c1nc(Cl)nc(Cl)n1`: 175 to 179 °C; `N#Cc1cc(N)ccc1N1CCC(N2CCSCC2)CC1`: 138 °C; `Cc1ccc(C)n1-c1ccc(I)cc1F`: 68 to 70 °C. Next, `N#CN=C(Nc1cncc(N)c1)NC1(c2ccccc2)CCC1`: 213 to 214 °C. With `CC1c2cnc3ccc(O[Si](C)(C)C(C)(C)C)cc3c2C(CO[Si](C)(C)C(C)(C)C)C(O)C1O` (configuration not stated), the melting point fell in the range of 206 to 209 °C.

Take `CCOC(=O)CC1Nc2ccccc2CC(N)C1=O` (configuration not stated): the melting point lay in the range of 71 to 73 °C. To `COc1cccc(-c2cccc(OC3SCC(OC(C)=O)C(OC(C)=O)C3OC(C)=O)c2)n1` (configuration not stated) belongs 195 °C; to `O=C(NCc1ccc(F)cc1)c1ccnc(N2CCN(C(F)(F)c3ccc(C(F)F)cc3)C2=O)c1`, 173 to 175 °C. With `CCc1nnc(-c2ccc([N+](=O)[O-])cc2)n1-c1ccc(OC)cc1`, the melting point came to 174 °C. To `NS(=O)(=O)c1cccc(-c2cccc(-c3nc(-c4ccc(C(F)(F)F)cc4F)cc(C(F)(F)F)n3)c2)c1` belongs 224 °C; to `CCC(=O)Nc1c(Sc2cc(C)cc(C)c2)c(C)c[nH]c1=O`, 186 to 188 °C. Next, `Cc1cc(Cl)ccc1N1CCC(=O)N(C)C1=O`: 120 to 127 °C; `Cc1cnc(S(=O)(=O)c2ccccc2)c(C)c1Cl`: 91 to 92 °C; `CC(CSC(=S)c1ccc(F)cc1)C(=O)N1CCCC1C(=O)O` (configuration not stated): 114 to 115 °C. Regarding `CN(C)c1ccc(O)c2c1CC1CC3C(N(C)C)C(O)=C(C(N)=O)C(=O)C3(O)C(O)=C1C2=O` (configuration not stated), the melting point came out at 113 °C. In turn, `CC(=O)c1ccc2[nH]c3ccc(C(C)=O)cc3c2c1` displayed a melting point of 241 °C. Consider `CCOC(=O)CCNC(=O)c1cn2nc(Cl)ccc2n1`, for which the melting point lay within 132 to 134 °C. `O=C(O)c1cccc(NCc2cccnc2)c1C(=O)O` yielded a melting point of 231 to 233 °C.

Turning to `O=c1c(-c2ccc(O)cc2)coc2ncccc12`, the melting point is 262 to 264 °C. To `Nc1ccsc1C(=O)c1ccccc1` belongs 100 to 102 °C.
